This is an account of results in patent US20170008921A1, “C-3 NOVEL TRITERPENONE WITH C-28 REVERSE AMIDE DERIVATIVES AS HIV INHIBITORS” (HETERO RESEARCH FOUNDATION, priority 2015, published 2017).

SMILES strings stand for the structures. Structures can show the parent of a compound that is named as a salt.

This data set in a line: Cyto-toxicity (MTT assay). Type of data set: cell-based. As to the method: On day 1 calculate the number of cells required for the assay and seed 3×10^4 cells in 200 μl per well. Weigh the compound and dissolve it in DMSO to get 10 mM stock which is further diluted to 3 mM and 1 mM. […] Add DMSO to controls in a way to obtain final concentration of solvent that is not greater than 1%. Incubate for 4 days in 5% CO2 incubator at 37° C. On day 4, 100 μl of medium was removed from each well without disturbing the cells. Add 10 μl of MTT reagent and incubate for 4 hours at 5% CO2 incubator at 37° C. for formation of crystals. Add 200 μl of 0.1N acidic isopropanol to dissolve the crystals and read the plate at 590 nm. The values are mentioned in below Table-3 and Table-3A.
`CC(C)C1=C2[C@H]3CC[C@@H]4[C@@]5(C)CC[C@H](OC(=O)[C@H]6C[C@@H](C(=O)O)C6(C)C)C(C)(C)[C@@H]5CC[C@@]4(C)[C@]3(C)CC[C@@]2(NC(=O)C(C)(C)NC(=O)c2ccc(Cl)cc2)CC1=O` [Example 1, (1R,3S)-3-((((3aR,5aR,5bR,7aR,9S,11aR,11bR,13aS)-3a-(2-(4-chlorobenzamido)-2-methylpropanamido)-1-isopropyl-5a,5b,8,8,11a-pentamethyl-2-oxo-3,3a,4,5,5a,5b,6,7,7a,8,9,10,11,11a,11b,12,13,13a-octadecahydro-2H-cyclopenta[a]chrysen-9-yl)oxy)carbonyl)-2,2-dimethylcyclobutane-1-carboxylic acid] registered a viability at 4 days, 0.01 µM of 57%; a viability at 4 days, 0.1 µM of 10%; a viability at 4 days, 1 µM of 4%.
Take `CC(C)C1=C2[C@H]3CC[C@@H]4[C@@]5(C)CC[C@H](OC(=O)[C@H]6C[C@@H](C(=O)O)C6(C)C)C(C)(C)[C@@H]5CC[C@@]4(C)[C@]3(C)CC[C@@]2(NC(=O)C(C)(C)NC(=O)[C@@H]2CCCN2C(=O)OC(C)(C)C)CC1=O` [Example 8, (1R,3S)-3-((((3aR,5aR,5bR,7aR,9S,11aR,11bR,13aS)-3a-(2-((S)-1-(tert-butoxycarbonyl)pyrrolidine-2-carboxamido)-2-methylpropanamido)-1-isopropyl-5a, 5b,8,8,11a-pentamethyl-2-oxo-3,3a,4,5,5a,5b,6,7,7a,8,9,10,11,11a,11b,12,13,13a-octadeca hydro-2H-cyclopenta[a]chrysen-9-yl)oxy)carbonyl)-2,2-dimethylcyclobutane-1-carboxylic acid]: the viability at 4 days, 0.01 µM worked out at 28%; the viability at 4 days, 0.1 µM amounted to 5%; the viability at 4 days, 1 µM was 3%.
Regarding `CCN1CCN(CC(=O)NC(C)(C)C(=O)N[C@@]23CC[C@]4(C)[C@H](CC[C@@H]5[C@@]6(C)CC[C@H](OC(=O)[C@H]7C[C@@H](C(=O)O)C7(C)C)C(C)(C)[C@@H]6CC[C@]54C)C2=C(C(C)C)C(=O)C3)CC1` [Example 9, (1R,3S)-3-((((3aR,5aR,5bR,7aR,9S,11aR,11bR,13aS)-3a-(2-(2-(4-ethylpiperazin-1-yl)acetamido)-2-methylpropanamido)-1-isopropyl-5a,5b,8,8,11a-pentamethyl-2-oxo-3,3a,4,5,5a,5b,6,7,7a,8,9,10,11,11a,11b,12,13,13a-octadecahydro-2H-cyclopenta[a]chrysen-9-yl)oxy)carbonyl)-2,2-dimethylcyclobutane-1-carboxylic acid], the viability at 4 days, 0.01 µM amounted to 100%; the viability at 4 days, 0.1 µM was found to be 53%; the viability at 4 days, 1 µM turned out to be 14%.
Regarding `CC(C)C1=C2[C@H]3CC[C@@H]4[C@@]5(C)CC[C@H](OC(=O)[C@H]6C[C@@H](C(=O)O)C6(C)C)C(C)(C)[C@@H]5CC[C@@]4(C)[C@]3(C)CC[C@@]2(NC(=O)C(C)(C)NC(=O)C(C)(C)N)CC1=O` [Example 11, (1R,3S)-3-((((3aR,5aR,5bR,7aR,9S,11aR,11bR,13aS)-3a-(2-(2-amino-2-methylpropanamido)-2-methylpropanamido)-1-isopropyl-5a,5b,8,8,11a-pentamethyl-2-oxo-3,3a,4,5,5a,5b,6,7,7a,8,9,10,11,11a,11b,12,13,13a-octadecahydro-2H-cyclopenta[a]chrysen-9-yl)oxy)carbonyl)-2,2-dimethylcyclobutane-1-carboxylic acid hydrochloride], the viability at 4 days, 0.01 µM came to 41%; the viability at 4 days, 0.1 µM is 3%; the viability at 4 days, 1 µM stood at 1%.
Take `CC(C)C1=C2[C@H]3CC[C@@H]4[C@@]5(C)CC[C@H](OC(=O)[C@H]6C[C@@H](C(=O)O)C6(C)C)C(C)(C)[C@@H]5CC[C@@]4(C)[C@]3(C)CC[C@@]2(NC(=O)C(C)(C)NC(=O)c2nccn2C)CC1=O` [Example 16, (1R,3S)-3-((((3aR,5aR,5bR,7aR,9S,11aR,11bR,13aS)-1-isopropyl-5a,5b,8,8,11a-pentamethyl-3a-(2-methyl-2-(1-methyl-1H-imidazole-2-carboxamido)propanamido)-2-oxo-3,3a,4,5,5a,5b,6,7,7a,8,9,10,11,11a,11b,12,13,13a-octadecahydro-2H-cyclopenta[a]chrysen-9-yl)oxy)carbonyl)-2,2-dimethylcyclobutane-1-carboxylic acid]: the viability at 4 days, 0.01 µM was 37%; the viability at 4 days, 0.1 µM was 11%; the viability at 4 days, 1 µM was 2%.
The compound `CC(C)C1=C2[C@H]3CC[C@@H]4[C@@]5(C)CC[C@H](OC(=O)[C@H]6C[C@@H](C(=O)O)C6(C)C)C(C)(C)[C@@H]5CC[C@@]4(C)[C@]3(C)CC[C@@]2(NC(=O)C(C)(C)NC(=O)c2ccco2)CC1=O` [Example 26, (1R,3S)-3-((((3aR,5aR,5bR,7aR,9S,11aR,11bR,13aS)-3a-(2-(furan-2-carboxamido)-2-methylpropanamido)-1-isopropyl-5a,5b,8,8,11a-pentamethyl-2-oxo-3,3a,4,5,5a,5b,6,7,7a,8,9,10,11,11a,11b,12,13,13a-octadecahydro-2H-cyclopenta[a]chrysen-9-yl)oxy)carbonyl)-2,2-dimethylcyclobutane-1-carboxylic acid] gave a viability at 4 days, 0.01 µM of 55%; a viability at 4 days, 0.1 µM of 20%; a viability at 4 days, 1 µM of 0%.
As to `CC(C)C1=C2[C@H]3CC[C@@H]4[C@@]5(C)CC[C@H](OC(=O)[C@H]6C[C@@H](C(=O)O)C6(C)C)C(C)(C)[C@@H]5CC[C@@]4(C)[C@]3(C)CC[C@@]2(NC(=O)C(C)(C)NC(=O)C2(c3ccccc3)CCCC2)CC1=O` [Example 27, (1R,3S)-3-((((3aR,5aR,5bR,7aR,9S,11aR,11bR,13aS)-1-isopropyl-5a,5b,8,8,11a-pentamethyl-3a-(2-methyl-2-(1-phenylcyclopentane-1-carboxamido)propanamido)-2-oxo-3,3a,4,5,5a,5b,6,7,7a,8,9,10,11,11a,11b,12,13,13a-octadecahydro-2H-cyclopenta[a]chrysen-9-yl)oxy)carbonyl)-2,2-dimethylcyclobutane-1-carboxylic acid], the viability at 4 days, 0.01 µM worked out at 52%; the viability at 4 days, 0.1 µM amounted to 2%; the viability at 4 days, 1 µM was 0%.
Consider `Cc1cccnc1C(=O)NC(C)(C)C(=O)N[C@@]12CC[C@]3(C)[C@H](CC[C@@H]4[C@@]5(C)CC[C@H](OC(=O)[C@H]6C[C@@H](C(=O)O)C6(C)C)C(C)(C)[C@@H]5CC[C@]43C)C1=C(C(C)C)C(=O)C2` [Example 29, (1R,3S)-3-((((3aR,5aR,5bR,7aR,9S,11aR,11bR,13aS)-1-isopropyl-5a,5b,8,8,11a-pentamethyl-3a-(2-methyl-2-(3-methylpicolinamido)propanamido)-2-oxo-3,3a,4,5,5a,5b,6,7,7a,8,9,10,11,11a,11b,12,13,13a-octadecahydro-2H-cyclopenta[a]chrysen-9-yl)oxy)carbonyl)-2,2-dimethylcyclobutane-1-carboxylic acid], for which the viability at 4 days, 0.01 µM worked out at 29%; the viability at 4 days, 0.1 µM was 3%; the viability at 4 days, 1 µM is 2%.

For orientation: viability means a read-out of living cells in per cent, often relative to untreated cells. Higher therefore signals better survival.
